Measured values from patent publication US20110263564A1, “PYRIDINE, BICYCLIC PYRIDINE AND RELATED ANALOGS AS SIRTUIN MODULATORS” (Sirtris Pharmaceuticals, Inc., priority 2008, published 2011).

Target: T1, SIRT1 (Homo sapiens, UniProt Q96EB6)
T1 sequence (Q96EB6 1-747): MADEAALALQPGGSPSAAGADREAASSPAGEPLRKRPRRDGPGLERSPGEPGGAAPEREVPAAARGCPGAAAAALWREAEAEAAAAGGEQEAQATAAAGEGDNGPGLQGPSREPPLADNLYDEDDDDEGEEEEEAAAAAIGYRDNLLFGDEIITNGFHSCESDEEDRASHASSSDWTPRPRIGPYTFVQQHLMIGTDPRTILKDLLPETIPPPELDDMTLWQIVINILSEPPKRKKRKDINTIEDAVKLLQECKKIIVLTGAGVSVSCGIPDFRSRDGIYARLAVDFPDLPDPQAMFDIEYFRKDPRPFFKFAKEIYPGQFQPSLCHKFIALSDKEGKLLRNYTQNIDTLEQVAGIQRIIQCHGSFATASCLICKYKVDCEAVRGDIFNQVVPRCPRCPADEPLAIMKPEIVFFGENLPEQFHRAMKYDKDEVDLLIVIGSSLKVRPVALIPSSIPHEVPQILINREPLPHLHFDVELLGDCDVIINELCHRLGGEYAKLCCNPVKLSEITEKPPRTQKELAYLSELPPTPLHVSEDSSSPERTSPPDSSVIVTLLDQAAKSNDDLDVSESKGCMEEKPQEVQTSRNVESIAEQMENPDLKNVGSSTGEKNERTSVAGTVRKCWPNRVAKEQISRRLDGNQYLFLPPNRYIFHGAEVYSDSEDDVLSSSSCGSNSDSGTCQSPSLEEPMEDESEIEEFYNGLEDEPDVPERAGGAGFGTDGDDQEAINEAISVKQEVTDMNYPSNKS
Assay: Mass spectrometry based assay of SIRT1 activity (deacetylation of a p53-based acetylated peptide)
Type: biochemical
Settings: 10 nM SIRT1, 0.5 μM peptide substrate, 120 μM βNAD+, 25 minutes at 25° C.; for Emax: read-out: % FOLD ACT. (percent maximum fold activation)
Description: A mass spectrometry based assay was used to identify modulators of SIRT1 activity. The mass spectrometry based assay utilizes a peptide having 20 amino acid residues as follows: Ac-EE-K(biotin)-GQSTSSHSK(Ac)NleSTEG-K(5TMR)-EE-NH2 (SEQ ID NO: 1) wherein K(Ac) is an acetylated lysine residue and Nle is a norleucine. The peptide is labeled with the fluorophore 5TMR (excitation 540 nm/emission 580 nm) at the C-terminus. The sequence of the peptide substrate is based on p53 with several modifications. In addition, the methionine residue naturally present in the sequence was replaced with the norleucine because the methionine may be susceptible to oxidation during synthesis and purification.
The mass spectrometry assay is conducted as follows: 0.5 μM peptide substrate and 120 μM βNAD^+ is incubated with 10 nM SIRT1 for 25 minutes at 25° C. in a reaction buffer (50 mM Tris-acetate pH 8, 137 mM NaCl, 2.7 mM KCl, 1 mM MgCl2, 5 mM DTT, 0.05% BSA). Test compounds may be added to the reaction as described above. […] After the 25 minute incubation with SIRT1, 10 μL of 10% formic acid is added to stop the reaction. Reactions are sealed and frozen for later mass spec analysis. Determination of the mass of the substrate peptide allows for precise determination of the degree of acetylation (i.e. starting material) as compared to deacetylated peptide (product).
A control for inhibition of sirtuin activity is conducted by adding 1 μL of 500 mM nicotinamide as a negative control at the start of the reaction (e.g., permits determination of maximum sirtuin inhibition). A control for activation of sirtuin activity is conducted using 10 nM of sirtuin protein, with 1 μL of DMSO in place of compound, to determine the amount of deacetylation of the substrate at a given timepoint within the linear range of the assay. This timepoint is the same as that used for test compounds and, within the linear range, the endpoint represents a change in velocity.
For the above assay, SIRT1 protein was expressed and purified as follows. […] The protein was expressed by induction with 1 mM IPTG as an N-terminal His-tag fusion protein at 18° C. overnight and harvested at 30,000×g. Cells were lysed with lysozyme in lysis buffer (50 mM Tris-HCl, 2 mM Tris[2-carboxyethyl]phosphine (TCEP), 10 μM ZnCl2, 200 mM NaCl) and further treated with sonication for 10 min for complete lysis. The protein was purified over a Ni-NTA column (Amersham) and fractions containing pure protein were pooled, concentrated and run over a sizing column (Sephadex S200 26/60 global). The peak containing soluble protein was collected and run on an Ion-exchange column (MonoQ). Gradient elution (200 mM-500 mM NaCl) yielded pure protein. This protein was concentrated and dialyzed against dialysis buffer (20 mM Tris-HCl, 2 mM TCEP) overnight. The protein was aliquoted and frozen at −80° C. until further use.
Sirtuin modulating compounds that activated SIRT1 were identified using the assay described above and are shown below in Table 1 for compounds of Formula (III)). The EC1.5 values represent the concentration of test compounds that result in 150% activation of SIRT1. The EC1.5 values for the activating compounds in Table 1 are represented by A (EC1.5<10.0 μM), B (EC1.5 10-25 μM), C (EC1.5>25 μM). The percent maximum fold activation is represented by A (Fold activation>200%) or B (Fold Activation<200%); “NT” means not tested; “ND” mean not determinable.

Row | Compound | EC1.5 (concentration of test compound that results in 150% activation of SIRT1) | Emax [%]
1 | CC(NC(=O)c1cccc(CN2CCCC2)n1)c1cccc(-c2cccc(C(F)(F)F)c2)n1 (stereo not drawn) [Compound 219] | C (EC1.5>25 μM) | –
2 | O=C(NC1CCCc2ccc(-c3cccc(N4CCCC4)c3)nc21)c1cnccn1 (stereo not drawn) [Compound 260] | C (EC1.5>25 μM) | –
3 | CC(NC(=O)c1cccnc1)c1cccc(-c2cccc(OC(F)(F)F)c2)n1 (stereo not drawn) [Compound 218] | C (EC1.5>25 μM) | –
4 | CC(NC(=O)c1ccccc1)c1cccc(-c2cccc(C(F)(F)F)c2)n1 (stereo not drawn) [Compound 215] | C (EC1.5>25 μM) | –
5 | CC(NC(=O)c1cccnc1)c1cccc(-c2cccc(C(F)(F)F)c2)n1 (stereo not drawn) [Compound 212] | A (EC1.5<10.0 μM) | > 200
6 | CC(C(=O)Nc1cccnc1)c1cccc(-c2cccc(C(F)(F)F)c2)n1 (stereo not drawn) [Compound 210] | C (EC1.5>25 μM) | –
7 | CC(C)c1cccc(-c2cccc(C(C)NC(=O)c3cscn3)n2)c1 (stereo not drawn) [Compound 201] | C (EC1.5>25 μM) | < 200
8 | O=C(Nc1cccc(N2CCOCC2)n1)C1CCOc2ccc(-c3cccc(C(F)(F)F)c3)nc21 (stereo not drawn) [Compound 302, N-(6-morpholinopyridin-2-yl)-6-(3-(trifluoromethyl)phenyl)-3,4-dihydro-2H-pyrano[3,2-b]pyridine-4-carboxamide] | C (EC1.5>25 μM) | –

Other lines, results leading:

Row | EC1.5 (concentration of test compound that results in 150% activation of SIRT1) | Emax [%] | Compound
9 | C (EC1.5>25 μM) | – | Cc1nc(NC(=O)C2CCCc3ccc(-c4cccc(C(F)(F)F)c4)nc32)sc1C (stereo not drawn) [Compound 281]
10 | C (EC1.5>25 μM) | – | O=C(NC1CCCc2ccc(-c3cccc(C(F)(F)F)c3)nc21)c1ccnc(CN2CCCC2)c1 (stereo not drawn) [Compound 239]
11 | C (EC1.5>25 μM) | – | O=C(NC1CCCc2ccc(-c3cccc(C(F)(F)F)c3)nc21)c1ccc(F)c(Cl)c1 (stereo not drawn) [Compound 225]
12 | A (EC1.5<10.0 μM) | > 200 | O=C(NC1CCCc2ccc(-c3cccc(C(F)(F)F)c3)nc21)c1ccnc(OCC(O)CO)c1 (stereo not drawn) [Compound 244]
13 | C (EC1.5>25 μM) | – | O=C(Nc1ccncn1)C1CCOc2ccc(-c3cccc(C(F)(F)F)c3)nc21 (stereo not drawn) [Compound 303]
14 | C (EC1.5>25 μM) | – | O=C(NC1CCCc2ccc(-c3cccc(C(F)(F)F)c3)nc21)c1ccno1 (stereo not drawn) [Compound 230]
15 | A (EC1.5<10.0 μM) | > 200 | O=C(NC1CCCc2ccc(-c3cccc(C(F)(F)F)c3)nc21)c1cccc(N2CCOCC2)n1 (stereo not drawn) [Compound 236]
16 | C (EC1.5>25 μM) | – | O=C(Nc1ncc(CN2CCCC2)s1)C1CCCc2ccc(-c3cccc(C(F)(F)F)c3)nc21 (stereo not drawn) [Compound 296]
17 | C (EC1.5>25 μM) | – | Cc1cc(NC(=O)C2CCCc3ccc(-c4cccc(C(F)(F)F)c4)nc32)no1 (stereo not drawn) [Compound 288]
